Laboratory results reported in US9447140B2, “Cholest-4-en-3-one oxime derivatives, pharmaceutical compositions containing same, and preparation method” (TROPHOS, priority 2008, dated 2016).

Assays:
rat motor neurons = experiment: in vitro model of trophic deprivation of rat motor neurons (survival, calcein fluorescence after 3 days); format: cell-based; settings: E14 rat motor neurons, Neurobasal medium without neurotrophic factors
Text: Reference can usefully be made to the applicant's patent application WO 0142784 on the culturing of motor neurons of the spinal cord.
The spinal cord of E14 rat embryos is dissected and the ventral part is dissociated by trituration after trypsination.
The motor neurons are separated from the other spinal cells by a known method (Camu et al., 1993, Purification of spinal motoneurons from chicken and rat embryos by immunopanning. In “Immunoselection Strategies for Neural cell culture”, Neuroprotocols: A companion to Methods in Neurosciences 2, 191-199; Henderson et al., 1993, Neutrophins promote motor neuron survival and are present in embryonic limb bud. Nature 363 (6426):266-70).
The cells are centrifuged on a density gradient. The fraction of large cells (the least dense) is enriched with motor neurons. The cells in this fraction are incubated with an anti-p75 antibody, a surface antigen present on the motor neurons.
Secondary antibodies coupled to magnetic beads are added and the mixture of cells is passed through a column in a magnet (Arce et al., 1999 Cardiotrophin-1 requires LIFRbeta to promote survival of mouse motoneurons purified by a novel technique. J. Neurosci Res 55 (1): 119-26). Only the motor neurons are retained: their purity is of the order of 90%.
The motor neurons are seeded at a low density in culture wells on a polyornithine-laminin substrate in a neurobasal medium (GIBCO) supplemented according to Raoul et al., 1999, Programmed cell death of embryonic motoneurons triggered through the Fas death receptor. J Cell Biol 147 (5):1049-62.
Negative controls (absence of trophic factors) and positive controls (in the presence of BDNF (Brain-Derived Neurotrophic Factor) at 1 ng/ml, GDNF (Glial-Derived Neurotrophic Factor) at 1 ng/ml and CNTF (Ciliary Neurotrophic Factor) at 10 ng/ml, marketed by the American company PEPROTECH, Inc. and the company Sigma-Aldrich, are included in each series.
The compounds to be tested are added 60 minutes after seeding and the cultures are maintained at 37° C. under 5% CO2 for 3 days.
The motor neurons have a spontaneous tendency to die in the absence of neurotrophic factors (Pettmann and Henderson, 1998, Neuronal cell death. Neuron 20 (4):633-47). After 3 days, the survival is evaluated by a fluorescence measurement after incubation of the cells in the presence of calcein which becomes fluorescent in living cells.
After 3 days in culture at 37° C., under 5% CO2 and under saturation humidity, up to 50% of the motor neurons initially seeded survive in the medium supplemented with neurotrophic factors, whilst less than 15% of the motor neurons survive in culture medium without added neurotrophic factors.
The neuroprotective activity of the compounds to be tested was evaluated by their ability to prevent the death of the motor neurons when they are added to the Neurobasal medium (GIBCO) in comparison with the survival of the motor neurons in medium with added neurotrophic factors.
This survival rate is expressed by the number of living cells after treatment with the compound to be tested compared with the survival induced by the neurotrophic factors. This ratio can therefore represent the survival percentage due to the compound tested compared with the survival induced by the neurotrophic factors. If the ratio is greater than 0, the effect of the compounds on the survival of the motor neurons is positive.

[1] = exposure after administration by oral route; format: in vivo; settings: qualitative

| SMILES | Ratio (survival of motor neurons with compound compared with the survival induced by the neurotrophic factors) (rat motor neurons; Concentration 1 μM) | Ratio (survival of motor neurons with compound compared with the survival induced by the neurotrophic factors) (rat motor neurons; Concentration 3 μM) | exposure when administered by oral route [1] |
| --- | --- | --- | --- |
| CC(CCC[C@@H](C)[C@H]1CC[C@H]2[C@@H]3CCC4=CC(=NO)CC[C@]4(C)[C@H]3CC[C@]12C)N(C)c1ccc([N+](=O)[O-])c2nonc12 (stereo partly drawn) [Example 2h, 3-oxyimino-25-[methyl(7-nitro-2,1,3-benzoxadiazol-4-yl)amino]-27-norcholest-4-ene] | 0.66 |  |  |
| CC(C)CCC[C@@H](C)[C@H]1CCC2C3CCC4=C(F)/C(=N/O)CC[C@]4(C)C3CC[C@@]21C (stereo partly drawn) [Example 2b, 3-oxyimino-4-fluoro-cholest-4-ene] |  | 0.73 | improved exposure |
| CC(C)CCC[C@@H](C)[C@H]1CCC2C3CCC4=C/C(=N/O)C(F)(F)C[C@]4(C)C3CC[C@@]21C (stereo partly drawn) [Example 2d, 3-oxyimino-2,2-difluoro-cholest-4-ene] |  | 0.50 |  |
| COC1=C2CC[C@H]3[C@@H]4CC[C@H]([C@H](C)CCCC(C)C)[C@@]4(C)CC[C@@H]3[C@@]2(C)CCC1=NO [Example 2n, 3-oxyimino-4-methoxy-cholest-4-ene] | 0.34 |  |  |
| CC(C)CCC[C@@H](C)[C@H]1CC[C@H]2[C@@H]3CCC4=CC(=NO)CC[C@]4(COC(=O)CCCCC4SCC5NC(=O)NC54)[C@H]3CC[C@]12C (stereo partly drawn) [Example 2l, 3-oxyimino-19-biotinyloxy-cholest-4-ene] | 0.32 |  |  |
| CC(CCCC(C)N(C)C(=O)CCCCC1SCC2NC(=O)NC21)C1CCC2C3CCC4=CC(=NO)CCC4(C)C3CCC12C (stereo not drawn) [Example 2i, 3-oxyimino-25-((N-(+)-biotinoyl-N-methyl)amino)-27-norcholest-4-ene] |  | 0.42 |  |
| CC(C)CCC[C@@H](C)[C@H]1CC[C@H]2[C@@H]3CCC4=CC(=NO)CC[C@]4(CO)[C@H]3CC[C@]12C [Example 2k, 3-oxyimino-19-hydroxy-cholest-4-ene] |  | 0.49 |  |
| CC(C)CCC[C@@H](C)[C@H]1CC[C@H]2[C@@H]3CCC4=CC(=NO)C(C)C[C@]4(C)[C@H]3CC[C@]12C (stereo partly drawn) [Example 2m, 3-oxyimino-2-methyl-cholest-4-ene] | 0.42 |  |  |
| CC(C)CCC[C@@H](C)[C@H]1CC[C@H]2[C@@H]3CCC4=CC(=NO)[C@H](F)C[C@]4(C)[C@H]3CC[C@]12C [Example 2f, 3-oxyimino-2α-fluoro-cholest-4-ene] |  | 0.27 |  |
| CC(C)CCC[C@@H](C)[C@H]1CCC2C3C[C@@H](F)C4=CC(=NO)CC[C@]4(C)C3CC[C@@]21C (stereo partly drawn) [Example 2c, 3-oxyimino-6β-fluoro-cholest-4-ene] |  | 0.50 |  |
| CC(C)CCC[C@@H](C)[C@H]1CC[C@H]2[C@@H]3CC(F)C4=CC(=NO)C(F)C[C@]4(C)[C@H]3CC[C@]12C (stereo partly drawn) [Example 2e, 3-oxyimino-2,6-difluoro-cholest-4-ene] |  | 0.37 |  |
